One may read the GI50 as the concentration that inhibits growth by half.

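Five compound concentrations were applied to cells in 96-well plates for 48 hours; endpoints were derived by simple linear interpolation of the resulting dose-response curve. The concentration for 50% growth inhibition is given as GI50.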 Active and inactive are the calls of the source. No stated cut-off is given here; in the data, active = GI50 up to about 1.1 µM and inactive = higher. Square brackets hold non-standard residues; d marks the D form. Peptide text beside a SMILES is read from it. * marks the point of attachment. Boc = CC(C)(C)OC(=O)*; OBn = c1ccc(CO*)cc1

Among the test systems are A549; CAKI-1; EKVX; LOX IMVI; MDA-MB-435; MDA-N; NCI-H522; OVCAR-5; PC-3; RPMI-8226; SF-268; SF-539; SK-MEL-28; SN12C; SNB-75; SR; T47D; U-251; UACC-257; RXF 393.
Holding throughout (test): DTP human tumour cell line panel, 48 h

For `COC(=O)c1ccccc1OCc1cc(=O)oc2ccc(C)cc12`, the GI50 in the test with A549 was 82.2 µM (inactive); in the test with CAKI-1 it was 52.5 µM (inactive); with EKVX it was > 100 µM (inactive); in the test on LOX IMVI, > 69.2 µM (inactive); in the test with MDA-MB-435, > 100 µM (inactive); with MDA-N, > 100 µM (inactive). Further, the GI50 is 14.8 µM (inactive) with NCI-H522; > 100 µM (inactive) with OVCAR-5; > 100 µM (inactive) with PC-3; > 63.4 µM (inactive) with RPMI-8226; 29.1 µM (inactive) with SF-268; 20.2 µM (inactive) in the test with SF-539. For the same compound, the GI50 is > 100 µM (inactive) with SK-MEL-28; > 100 µM (inactive) with SN12C; 16.2 µM (inactive) in the test on SNB-75; > 100 µM (inactive) in the test on SR; 4.7 µM (inactive) with T47D; 14.4 µM (inactive) in the test with U-251. For the same compound, in the test with UACC-257, the GI50 was > 87.3 µM (inactive).
As for `CCC(C)(C)/C(CC(O)(C(F)(F)F)C(F)(F)F)=N\O`, the GI50 in the test with A549, in the test with CAKI-1, in the test with EKVX, in the test on LOX IMVI, with MDA-MB-435 and in the test on MDA-N was > 100 µM (inactive) each time. Further, the GI50 in the test with NCI-H522, with OVCAR-5, with PC-3, in the test on RPMI-8226, in the test on RXF 393 and in the test on SF-268 was > 100 µM (inactive) throughout. Moreover, the GI50 with SF-539, in the test with SK-MEL-28, with SN12C, in the test with SNB-75, in the test with SR and in the test on T47D was > 100 µM (inactive) in each case. Moreover, the GI50 in the test with U-251 was > 100 µM (inactive).
For `CC(=O)c1sc(=N)n(-c2c(C)cccc2C)c1C`, the GI50 in the test on A549, in the test on EKVX, in the test with LOX IMVI, with MDA-MB-435, in the test with MDA-N and in the test with NCI-H522 was > 100 µM (inactive) throughout. Also, the GI50 in the test on OVCAR-5, in the test with PC-3, with RPMI-8226, in the test with RXF 393, with SF-268 and in the test on SF-539 was > 100 µM (inactive) each time. Besides, the GI50 in the test on SK-MEL-28, in the test on SN12C, in the test on SNB-75, with SR, with T47D and in the test with U-251 was > 100 µM (inactive) each time.
For the compound `O=C(/N=N/c1ccc([N+](=O)[O-])cc1)NNc1ccc([N+](=O)[O-])cc1`, the GI50 with A549 was 26 µM (inactive); with CAKI-1, 18.9 µM (inactive); with LOX IMVI, 11.2 µM (inactive); in the test with MDA-MB-435, 12.8 µM (inactive); in the test on MDA-N, 11.6 µM (inactive); with NCI-H522, 17.7 µM (inactive). Besides, the GI50 was 14.5 µM (inactive) with OVCAR-5; 9.62 µM (inactive) with PC-3; 14.3 µM (inactive) in the test with RPMI-8226; 21.8 µM (inactive) in the test on SF-268; 16.4 µM (inactive) with SK-MEL-28; 13.3 µM (inactive) in the test with SN12C. Also, the GI50 was 23.9 µM (inactive) in the test with SNB-75; 15.4 µM (inactive) in the test on SR; 9.14 µM (inactive) with T47D; 18.9 µM (inactive) in the test on U-251; 24.3 µM (inactive) with UACC-257.
Turning to `CC(=O)[C@]12OC(=O)C3=C1[C@H](CC[C@@H]3C)[C@@H](C)C[C@H]2C=C(C)C`, the GI50 in the test on A549 was 7.48 µM (inactive); in the test on CAKI-1, 6.49 µM (inactive); in the test on LOX IMVI it was 7.93 µM (inactive); in the test with MDA-MB-435, 7.93 µM (inactive); in the test on MDA-N, 7.59 µM (inactive); in the test with NCI-H522, 5.36 µM (inactive). For the same compound, the GI50 with OVCAR-5 was 8.11 µM (inactive); with PC-3, 9.2 µM (inactive); in the test with RPMI-8226, 7.26 µM (inactive); with SF-268, 8.47 µM (inactive); with SF-539, 9.14 µM (inactive); with SN12C it was 8.69 µM (inactive). The GI50 with SR was 7.87 µM (inactive); in the test with T47D, 6.44 µM (inactive); in the test on U-251, 7.8 µM (inactive); in the test on UACC-257 it was 9.75 µM (inactive).
As to `C=Cc1c(C)c(OC)cc2c1Oc1ccc(OC)c(C)c1CC2`, the GI50 in the test on A549 was > 100 µM (inactive); in the test with CAKI-1 it was > 100 µM (inactive); in the test with EKVX, 45.7 µM (inactive); in the test on MDA-MB-435 it was 76 µM (inactive); in the test with MDA-N it was > 100 µM (inactive); with NCI-H522, 88.5 µM (inactive). Besides, the GI50 in the test on OVCAR-5 is > 100 µM (inactive); in the test with PC-3 it was 52.6 µM (inactive); in the test with RPMI-8226, > 100 µM (inactive); with RXF 393 it was > 100 µM (inactive); in the test on SF-268 it was > 100 µM (inactive); with SF-539, > 100 µM (inactive). The GI50 in the test with SK-MEL-28 was > 100 µM (inactive); with SN12C, > 100 µM (inactive); with SNB-75 it was 84.3 µM (inactive); with SR it was > 100 µM (inactive); in the test on T47D it was > 100 µM (inactive); in the test on U-251 it was > 100 µM (inactive). The GI50 with UACC-257 was 43.5 µM (inactive).
In the case of `N/C(=N\O)NCCN1CCCCCCC1`, the GI50 in the test with A549, with CAKI-1, in the test on EKVX, in the test on LOX IMVI, with MDA-MB-435 and with MDA-N was > 100 µM (inactive) each time. Moreover, the GI50 is > 100 µM (inactive) in the test with NCI-H522; > 100 µM (inactive) in the test with OVCAR-5; 28.4 µM (inactive) in the test on PC-3; > 100 µM (inactive) in the test with RPMI-8226; > 100 µM (inactive) in the test with RXF 393; > 100 µM (inactive) with SF-268. The GI50 was > 100 µM (inactive) in the test with SF-539; > 100 µM (inactive) with SK-MEL-28; 37.2 µM (inactive) in the test with SN12C; > 100 µM (inactive) with SNB-75; > 100 µM (inactive) with SR; 80.9 µM (inactive) in the test on T47D. Further, in the test on UACC-257, the GI50 was > 100 µM (inactive).
For the compound `Cc1c(O)c(OC2OC(CO)C(O)C(O)C2O)cc2c1CC[C@@H]1C2(C)C(=O)C[C@]2(C)[C@@H]([C@@](C)(O)C(O)/C=C/C(C)(C)O)[C@H](O)C[C@@]12C` (some centres undefined), the GI50 in the test on A549, in the test on CAKI-1, with EKVX, in the test with LOX IMVI, in the test with MDA-MB-435 and in the test on MDA-N was > 100 µM (inactive) in each case. The GI50 in the test on NCI-H522, with OVCAR-5, with PC-3, in the test with RXF 393, in the test with SF-268 and with SF-539 was > 100 µM (inactive) each time. For the same compound, the GI50 in the test on SK-MEL-28, in the test with SN12C, in the test on SNB-75, with SR, in the test on T47D and in the test on U-251 was > 100 µM (inactive) each time. In addition, the GI50 in the test with UACC-257 is > 100 µM (inactive).
`Cc1cnc2nc(-c3sccc3C)cc(O)c2c1`: the GI50 in the test with A549 is 3.96 µM (inactive); in the test with CAKI-1 it was 6.47 µM (inactive); in the test on EKVX, 7.06 µM (inactive); in the test on LOX IMVI, 7.83 µM (inactive); in the test with MDA-MB-435 it was 0.342 µM (active); with MDA-N, 0.361 µM (active). The GI50 with NCI-H522 is 1.12 µM (active); with OVCAR-5 it was > 24 µM (inactive); in the test with PC-3 it was 3.78 µM (inactive); with RXF 393 it was 3.42 µM (inactive); in the test with SF-268, 10.9 µM (inactive); with SF-539, 5.81 µM (inactive). For the same compound, the GI50 in the test with SK-MEL-28 is 23 µM (inactive); in the test with SN12C, 10.2 µM (inactive); with SNB-75, 4.32 µM (inactive); with SR it was 0.471 µM (active); in the test on T47D, > 100 µM (inactive); in the test with U-251, 4.86 µM (inactive). Moreover, in the test with UACC-257, the GI50 was 8.38 µM (inactive).
For `C[C@@H](NC(=O)CNC(=O)OC(C)(C)C)C(=O)N[C@@H](Cc1ccccc1)C(=O)OCc1ccccc1` (Boc-Gly-[dA]-Phe-OBn), the GI50 with A549 was > 100 µM (inactive); in the test on CAKI-1, > 100 µM (inactive); with EKVX, 97.7 µM (inactive); with LOX IMVI, 20.6 µM (inactive); in the test on MDA-MB-435, 32.4 µM (inactive); in the test on MDA-N, 36.7 µM (inactive). For the same compound, the GI50 in the test on NCI-H522 was 26.3 µM (inactive); with OVCAR-5, > 100 µM (inactive); in the test on PC-3, 49 µM (inactive); with RXF 393 it was 32 µM (inactive); with SF-268 it was 89.1 µM (inactive); with SF-539, > 100 µM (inactive). The GI50 is 20.1 µM (inactive) in the test on SK-MEL-28; > 100 µM (inactive) with SN12C; 43.9 µM (inactive) in the test on SNB-75; 19.5 µM (inactive) with SR; 63.4 µM (inactive) in the test on T47D; 71.8 µM (inactive) in the test with U-251. Besides, the GI50 in the test with UACC-257 is 33.7 µM (inactive).

The values are drawn from ChEMBL document CHEMBL1201862, “PubChem BioAssay data set” (2004).
